Measurements reported in US11339193B2, “CDP protein secretion inhibitors” (KEZAR LIFE SCIENCES, priority 2018, dated 2022).
Like-named read-outs stand apart in the source and are kept apart here. Numbered stars: 1 amine (or outer) side, 2 acyl side, 3 side chain; on linkers, the order of the positions; unused ones are H or OH. Square brackets hold non-standard residues; d marks the D form. Peptide text beside a SMILES is read from it. NMeAla(5-Cl-benzothien-3-yl) = CN[C@@H](Cc1csc2ccc(Cl)cc12)C(=O)O; X18 = Cc1ccc(Cn2cc(C[C@@H](C(=O)[*:2])N(C)[*:1])c3ccccc32)cc1; Ala(1-cyclohexenyl) = N[C@@H](CC1=CCCCC1)C(=O)O; Butanoyl(2R-oxy,4-CN) = N#CCC[C@@H](O)C(=O)O; NMe3Pal(5-F) = CN[C@@H](Cc1cncc(F)c1)C(=O)O; X22 = CCCC[C@@H](C)C[C@H](N[*:1])C(=O)[*:2]; NMePhe(4-F) = CN[C@@H](Cc1ccc(F)cc1)C(=O)O; X28 = CCCC[C@H](C)C[C@H](N[*:1])C(=O)[*:2]; Abu(4,4,4-F3) = N[C@@H](CC(F)(F)F)C(=O)O; X12 = O=C([C@H](CC1=CCCC1)N[*:1])[*:2]; NMeL = CN[C@@H](CC(C)C)C(=O)O; NMeA = CN[C@@H](C)C(=O)O; dLac = C[C@@H](O)C(=O)O

Legend:
Type in all cases: cell-based
[1] = tested on: PD1-ss+10aa/Gaussia Luciferase; assay: Dox induced PD1-ss-Gluc assay; conditions: Flp-In 293 T-REx cells, doxycycline, 24 hours; read-out: PD1ss Gluc IC50
Summary of the method: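 Stable Flp-In 293 T-REx line expressing doxycycline-inducible Gaussia luciferase fused to the PD1 signal sequence plus 10 amino acids. Cells plated the day before, then exposed to compound dilutions in DMSO/media containing doxycycline at 37 °C, 5% CO2.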

[2] = tested on: TNFα-FL/Gaussia Luciferase; assay: Dox induced TNFα-FL-Gluc assay; conditions: read-out: TNFa FL Gluc IC50
Summary of the method: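 Stable Flp-In 293 T-REx line expressing full-length TNFα (aa 1-233) fused at its C-terminus to Gaussia luciferase under doxycycline-inducible control. Cells plated the day before, then given compound dilutions in DMSO/media containing doxycycline and incubated at 37 °C, 5% CO2.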

[3] = tested on: NCI-H929 multiple myeloma cell line; assay: H929 assay (cell viability, Celltiter-Glo); conditions: Homo sapiens, NCI-H929, read-out: H929 EC50
Summary of the method: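 Cells plated in RPMI 1640 with 10% FBS and 2 mM glutamine, treated with compound dilutions in DMSO/media. Incubation 48 h at 37° C, 5% CO2. Viability from luciferase luminescence signal.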

[4] = tested on: Prl-ss+10aa/Gaussia Luciferase; assay: Prl-ss-Gluc assay (constitutively active or 24 hr Dox inducible); conditions: read-out: Prl IC50
Summary of the method: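 Stable Flp-In 293 T-REx lines express Prl signal sequence+10aa fused to Gaussia luciferase, either constitutively (pcDNA5/FRT) or under the T-REx promoter (pcDNA5/FRT/TO). Cells plated the day before; compounds in DMSO/media (with doxycycline for the inducible line, 24 h) incubated at 37 °C, 5% CO2.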

[5] = tested on: VCAMss+10aa/Gaussia Luciferase; assay: VCAM-ss-Gluc assay (constitutively active or Dox induced); conditions: Flp-In 293 T-REx cells, 24 hours
Description: Assays Constitutively Active VCAM-ss-Gluc Assay
Transfected cells were selected for resistance to the selectable markers Hygromycin and Blasticidin to create a stable cell line that constitutively expressed the VCAMss+ 10aa/Gaussia Luciferase fusion protein. The day before assay, cells were trypsinized and plated in 384-well tissue culture plates. The next day, culture media was removed from the wells and replaced with fresh media. Compound dilutions in DMSO/media were added to the wells and incubated at 37° C., 5% CO2.
Dox Induced VCAM-ss-Gluc Assay
Transfected cells were selected for resistance to the selectable markers Hygromycin and Blasticidin to create a stable cell line that contained the VCAMss+10aa/Gaussia Luciferase cDNA insert whose expression was regulated under the T-REx™ system. The day before assay, cells were trypsinized and plated in 384-well tissue culture plates. The next day, compound dilutions in DMSO/media containing doxycycline were added to the wells and incubated at 37° C., 5% CO2.

[6] = tested on: JJN3 plasma cell leukemia cell line; assay: JJN-3 assay (Alamar blue); conditions: Homo sapiens, 72 h
Description: BT474 is a human breast tumor cell line. JJN3 is a human plasma cell leukemia cell line. […] Cells were seeded at 100 000 cells/mL. Aliquots of 5000 cells (50 μL) were added to each well in black, clear bottom 96-well plates. Compounds or control (50 uL of 1% DMSO in cell culture medium) were added to the cells to the indicated final concentrations and cells were incubated for 72 h (unless otherwise specified). After incubation was complete, Alamar blue (10 uL of a 1 mg/mL solution) was added to each well and plates were incubated for 5 h. Fluorescence was then measured (excitation 545 nm, emission 590 nm) and is reported as […] normalized to DMSO control.

[7] = tested on: U266B1 multiple myeloma cell line; assay: U266 assay (cell viability, Celltiter-Glo); conditions: Homo sapiens, U-266
Description: Cells were plated in 384-well tissue culture plates and treated with compound dilutions in DMSO/media. Plates were incubated at 37° C., 5% CO2 for 48 hours. After 48 hours, Celltiter-Glo@ (Promega) was added to each well and luciferase signal was quantified using Tecan Infinite M1000 Pro for cell viability determination.

HER3ss-Gluc = assay: HER3ss assay; conditions: HEK-293T T-rex cells, transient transfection, doxycycline, 24 h; read-out: HER3 ss IC50
Summary of the method: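 HEK-293T T-REx cells were transiently transfected with HER3 signal sequence (plus four mature-domain residues) fused upstream of mature Gaussia luciferase. Cells were induced with doxycycline (1 μg/ml) and exposed to increasing compound concentrations for 24 h, then secreted luciferase in the conditioned medium was read by luminescence.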

[8] = Flp-In 293 T-REx cells, doxycycline, 24 hours
[9] = Flp-In 293 T-REx cells, 24 hours

IC50 [1] [nM]	IC50 [2, 8] [nM]	EC50 ([3]; 48 hours, cell viability) [nM]	IC50 [4, 9] [nM]	IC50 [5] [nM]	IC50 (HER3ss-Gluc) [nM]	EC50 ([7]; I.A.) [nM]	Structure (SMILES)	further results
86	131	1480	1660	22	–	–	CCCC[C@@H](C)C[C@@H]1NC(=O)[C@H](Cc2cncc(F)c2)N(C)C(=O)[C@H](CC(C)C)NC(=O)[C@H](CC(C)C)N(C)C(=O)[C@H](C[C@H](C)CCCC)NC(=O)[C@@H](CCC#N)OC(=O)[C@H](C)N(C)C1=O [C-24] (cyclo(L[NMe3Pal(5-F)][X22][NMeA][Butanoyl(2R-oxy,4-CN)][X22][NMeL]))	EC50 ([7]; 48 hours, cell viability): 5540 nM
42	103	603	1090	–	81	> 25000	Cc1ccc(Cn2cc(C[C@H]3C(=O)N[C@@H](CC(C)C)C(=O)N(C)[C@@H](C)C(=O)O[C@H](CCC#N)C(=O)N[C@@H](CC(F)(F)F)C(=O)N(C)[C@@H](CC(C)C)C(=O)N[C@@H](CC(F)(F)F)C(=O)N3C)c3ccccc32)cc1 [C-83] (cyclo(L[NMeA][Butanoyl(2R-oxy,4-CN)][Abu(4,4,4-F3)][NMeL][Abu(4,4,4-F3)][X18]))	–
–	–	–	–	3150	–	–	CC(C)C[C@@H]1NC(=O)[C@H](Cc2cn(Cc3ccccc3)nn2)N(C)C(=O)[C@H](CC(C)C)NC(=O)[C@H](CC(C)C)N(C)C(=O)[C@H](CC(C)C)NC(=O)[C@@H](CCC#N)OC(=O)[C@H](C)N(C)C1=O [C-73]	–
149	605	5260	19800	–	30	> 25000	CC(C)C[C@@H]1NC(=O)[C@H](Cc2csc3ccc(Cl)cc23)N(C)C(=O)[C@H](CC(C)C)NC(=O)[C@H](CC(C)C)N(C)C(=O)[C@H](CC2=CCCCC2)NC(=O)[C@@H](CCC#N)OC(=O)[C@H](C)N(C)C1=O [C-99] (cyclo(L[NMeA][Butanoyl(2R-oxy,4-CN)][Ala(1-cyclohexenyl)][NMeL]L[NMeAla(5-Cl-benzothien-3-yl)]))	–

Further lines, the molecule ahead of its results:

Structure (SMILES)	IC50 [1] [nM]	IC50 [2, 8] [nM]	EC50 ([3]; 48 hours, cell viability) [nM]	IC50 [4, 9] [nM]	IC50 [5] [nM]	IC50 (HER3ss-Gluc) [nM]	EC50 ([7]; I.A.) [nM]	further results
COc1ccc(Cn2cc(C[C@H]3C(=O)N[C@@H](CC(C)C)C(=O)N(C)[C@@H](C)C(=O)O[C@H](C)C(=O)N[C@@H](CC(C)C)C(=O)N(C)[C@@H](CC(C)C)C(=O)N[C@@H](CC(C)C)C(=O)N3C)c3ccccc32)cc1 [C-11] (HELM PEPTIDE1{L.[meA].[C[C@@H](O[*:1])C(=O)[*:2]].L.[meL].L.[COc1ccc(Cn2cc(C[C@@H](C(=O)[*:2])N(C)[*:1])c3ccccc32)cc1]}$PEPTIDE1,PEPTIDE1,1:R1-7:R2$$$V2.0)	52	295	2560	4500	2090	–	–	EC50 [6]: 792 nM; EC50 ([7]; 48 hours, cell viability): 23700 nM
CCCC[C@H](C)C[C@@H]1NC(=O)[C@H](Cc2ccc(F)cc2)N(C)C(=O)[C@H](CC(C)C)NC(=O)[C@H](CC(C)C)N(C)C(=O)[C@H](CC(C)C)NC(=O)[C@@H](C)OC(=O)[C@H](C)N(C)C1=O [C-69] (cyclo(L[NMeL]L[NMePhe(4-F)][X28][NMeA][dLac]))	–	–	–	–	1700	–	–	–
CC(C)C[C@@H]1NC(=O)[C@H](Cc2ccccc2)N(C)C(=O)[C@H](CC(C)C)NC(=O)[C@H](CC(C)C)N(C)C(=O)[C@H](CC(C)C)NC(=O)[C@@H](C)OC(=O)[C@H](C)N(C)C1=O [C-34] (HELM PEPTIDE1{L.[meA].[C[C@@H](O[*:1])C(=O)[*:2]].L.[meL].L.[meF]}$PEPTIDE1,PEPTIDE1,1:R1-7:R2$$$V2.0)	1050	–	6540	–	274	963	–	–
CC(C)C[C@@H]1NC(=O)[C@H](Cc2cn(Cc3ccccc3)c3ccccc23)N(C)C(=O)[C@H](CC(C)C)NC(=O)[C@H](CC(C)C)N(C)C(=O)[C@H](CC(C)C)NC(=O)[C@@H](C)OC(=O)[C@H](C)N(C)C1=O [C-72] (HELM PEPTIDE1{L.[meA].[C[C@@H](O[*:1])C(=O)[*:2]].L.[meL].L.[CN([C@@H](Cc1cn(Cc2ccccc2)c2ccccc12)C(=O)[*:2])[*:1]]}$PEPTIDE1,PEPTIDE1,1:R1-7:R2$$$V2.0)	–	–	–	–	327	226	–	–
CCCC[C@@H](C)C[C@@H]1NC(=O)[C@H](Cc2ccc(F)cn2)N(C)C(=O)[C@H](CC(C)C)NC(=O)[C@H](CC(C)C)N(C)C(=O)[C@H](C[C@H](C)CCCC)NC(=O)[C@@H](CCC#N)OC(=O)[C@H](C)N(C)C1=O [C-17]	149	274	2200	6340	14	–	–	EC50 ([7]; 48 hours, cell viability): 9130 nM
CC(C)C[C@@H]1NC(=O)[C@H](Cc2c[nH]c3ccccc23)N(C)C(=O)[C@H](CC(C)C)NC(=O)[C@H](CC(C)C)N(C)C(=O)[C@H](CC(C)C)NC(=O)[C@@H](CCC#N)OC(=O)[C@H](C)N(C)C1=O [C-71] (HELM PEPTIDE1{L.[meA].[N#CCC[C@@H](O[*:1])C(=O)[*:2]].L.[meL].L.[meW]}$PEPTIDE1,PEPTIDE1,1:R1-7:R2$$$V2.0)	–	–	–	–	354	445	–	–
CC(C)C[C@@H]1NC(=O)[C@H](Cc2csc3ccc(Cl)cc23)N(C)C(=O)[C@H](CC2=CCCC2)NC(=O)[C@H](CC(C)C)N(C)C(=O)[C@H](CC2=CCCCC2)NC(=O)[C@@H](CCC#N)OC(=O)[C@H](C)N(C)C1=O [C-86] (cyclo(L[NMeA][Butanoyl(2R-oxy,4-CN)][Ala(1-cyclohexenyl)][NMeL][X12][NMeAla(5-Cl-benzothien-3-yl)]))	567	–	–	–	–	10	> 25000	IC50 ([2]; I.A.): > 25000 nM; EC50 ([3]; I.A.): > 25000 nM; IC50 ([4]; I.A.): > 25000 nM
CC(C)C[C@@H]1NC(=O)[C@H](Cc2cn(Cc3ccc(F)cc3)c3ccccc23)N(C)C(=O)[C@H](CC(C)C)NC(=O)[C@H](CC(C)C)N(C)C(=O)[C@H](CC(C)C)NC(=O)[C@@H](C)OC(=O)[C@H](C)N(C)C1=O [C-30] (HELM PEPTIDE1{L.[meA].[C[C@@H](O[*:1])C(=O)[*:2]].L.[meL].L.[CN([C@@H](Cc1cn(Cc2ccc(F)cc2)c2ccccc12)C(=O)[*:2])[*:1]]}$PEPTIDE1,PEPTIDE1,1:R1-7:R2$$$V2.0)	–	–	–	–	–	–	–	EC50 [6]: 14200 nM
CC(C)C[C@@H]1NC(=O)[C@H](Cc2csc3ccc(Cl)cc23)N(C)C(=O)[C@H](CC(F)(F)F)NC(=O)[C@H](CC(C)C)N(C)C(=O)[C@H](CC(F)(F)F)NC(=O)[C@@H](CCC#N)OC(=O)[C@H](C)N(C)C1=O [C-90] (cyclo(L[NMeA][Butanoyl(2R-oxy,4-CN)][Abu(4,4,4-F3)][NMeL][Abu(4,4,4-F3)][NMeAla(5-Cl-benzothien-3-yl)]))	520	2880	–	–	–	38	> 25000	EC50 ([3]; I.A.): > 25000 nM; IC50 ([4]; I.A.): > 25000 nM
